In US20240034743A9, “TRICYCLIC COMPOUNDS AS EGFR INHIBITORS” (QILU PHARMACEUTICAL CO., LTD., priority 2020, published 2024):
Like-named read-outs stand apart in the source and are kept apart here.

Legend:
[1] = target: EGFR WT (wild type EGFR) (Homo sapiens (Human), UniProt P00533); assay: In vitro enzymatic TR-FRET (HTRF KinEASE-TK) kinase assay, EGFR WT; format: biochemical; conditions: kinase activity, TR-FRET; read-out: EGFR (WT) IC50
Outline: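 IC50 derived from the 665/615 nm TR-FRET ratio after 1 h with streptavidin-XL665 and Cryptate-labelled TK antibody. Kinase reaction ran 40 min at room temperature with biotin-TK substrate and ATP, following 10 min compound–enzyme preincubation. Buffer: 5 mM MgCl2, 1 mM MnCl2, 1 mM DTT.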

[2] = target: EGFR L858R/T790M/C797S (Homo sapiens (Human), UniProt P00533, C797S/L858R/T790M); assay: In vitro enzymatic TR-FRET (HTRF KinEASE-TK) kinase assay, EGFR L858R/T790M/C797S; format: biochemical; conditions: kinase activity
EGFR L858R/T790M/C797S, sequence (P00533 25-1210 T790M/C797S/L858R): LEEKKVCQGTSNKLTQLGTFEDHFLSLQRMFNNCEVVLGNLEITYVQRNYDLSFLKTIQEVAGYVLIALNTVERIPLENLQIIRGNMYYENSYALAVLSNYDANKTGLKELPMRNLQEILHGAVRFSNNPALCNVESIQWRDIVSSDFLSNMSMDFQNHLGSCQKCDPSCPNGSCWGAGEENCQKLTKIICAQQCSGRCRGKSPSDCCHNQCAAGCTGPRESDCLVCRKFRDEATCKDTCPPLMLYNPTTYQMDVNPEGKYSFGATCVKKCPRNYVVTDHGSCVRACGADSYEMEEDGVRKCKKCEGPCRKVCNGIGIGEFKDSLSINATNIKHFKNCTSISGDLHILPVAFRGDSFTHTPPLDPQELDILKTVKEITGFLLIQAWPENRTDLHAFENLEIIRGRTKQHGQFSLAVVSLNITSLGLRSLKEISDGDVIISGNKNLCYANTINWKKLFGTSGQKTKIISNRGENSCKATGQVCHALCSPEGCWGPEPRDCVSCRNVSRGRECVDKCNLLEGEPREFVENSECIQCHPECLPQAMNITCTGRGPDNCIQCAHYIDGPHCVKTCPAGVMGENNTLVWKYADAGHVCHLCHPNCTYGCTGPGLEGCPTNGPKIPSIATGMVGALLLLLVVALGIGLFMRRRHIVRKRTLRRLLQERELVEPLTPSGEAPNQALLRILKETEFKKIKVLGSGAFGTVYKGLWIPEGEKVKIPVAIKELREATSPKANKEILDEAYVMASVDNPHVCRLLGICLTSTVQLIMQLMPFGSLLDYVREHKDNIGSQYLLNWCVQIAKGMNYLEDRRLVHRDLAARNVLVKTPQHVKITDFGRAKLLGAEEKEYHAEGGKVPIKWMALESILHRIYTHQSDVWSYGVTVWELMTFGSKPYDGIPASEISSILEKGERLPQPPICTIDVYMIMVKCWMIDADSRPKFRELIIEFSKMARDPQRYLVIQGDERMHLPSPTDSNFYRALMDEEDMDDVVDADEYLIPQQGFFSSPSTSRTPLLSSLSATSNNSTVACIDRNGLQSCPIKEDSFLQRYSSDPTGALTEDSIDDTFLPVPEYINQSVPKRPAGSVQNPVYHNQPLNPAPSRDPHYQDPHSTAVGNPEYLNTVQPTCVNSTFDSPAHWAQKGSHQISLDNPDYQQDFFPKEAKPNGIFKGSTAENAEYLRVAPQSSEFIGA
Protocol: (I) In Vitro Enzymatic Experiment for EGFR WT and EGFR L858R/T790M/C797S
In the assay, the inhibition effect of the compound on the kinase activity of EGFR WT (wild type EGFR) and EGFR L858R/T790M/C797S was tested by adopting a time-resolved fluorescence resonance energy transfer (TR-FRET) method, and half maximal inhibitory concentration IC50 of the compound on the kinase activity of EGFR was obtained.
EGFR recombinase and EGFR L858R/T790M/C797S recombinase, purchased from Signalchem.
HTRF KinEASE-TK kit, purchased from Cisbio.
DTT, MnCl2, and MgCl2, purchased from Sigma.
ATP, purchased from Promega.
Brigatinib, purchased from Selleck.
1) 1× working solution was prepared: 5 mM MgCl2; 1 mM DTT; 1 mM MnCl2 and 1× kinase buffer (in kit).
2) […] of gradiently-diluted compound was transferred to a 384-well plate using Echo 550 (Labcyte).
3) 5 μL of 2× EGFR WT or EGFR L858R/T790M/C797S recombinase solution was added to the 384-well plate, and the plate was incubated at room temperature for 10 min.
4) 5 μL of 2× TK-substrate-biotin substrate solution (containing ATP) was added to the 384-well plate, and the plate was incubated at room temperature for 40 min.
5) 5 μL of assay solution containing Sa-XL 665 HTRF and 5 μL of TK-antibody-Cryptatewas were added to the plate, and the plate was incubated at room temperature for 1 h.
6) The fluorescence signal values at 615 nm and 665 nm were measured for each well using an Envision microplate reader (PerkinElmer).
7) The ratio of fluorescence signal values at 665 nm and 615 nm was calculated for each well.
8) Data analysis was performed using GraphPad Prism software to give the IC50 for compounds.

[3] = system: A431 cells (EGFR WT); assay: A431 cell proliferation inhibition assay (CellTiter-Glo); format: cell-based
Outline: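 CellTiter-Glo luminescence quantified growth after 72 h treatment with serially diluted compounds (final DMSO 0.1%), following a 24 h attachment period at 37° C, 5% CO2. Signal read after 30 min dark incubation at room temperature, with half-maximal growth inhibition reported as IC50.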

[4] = system: Ba/F3_Del19/T790M/C797S cells; assay: Ba/F3_Del19/T790M/C797S cell proliferation inhibition assay (CellTiter-Glo); format: cell-based
Outline: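 IC50 for growth inhibition came from CellTiter-Glo chemiluminescence after a 72 h, 37° C compound exposure. Ba/F3_Del19/T790M/C797S cells were plated at 700/well, and compound was dosed in gradient with 0.1% final DMSO.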

[5] = system: Ba/F3_L858R/T790M/C797S cells; assay: Ba/F3_L858R/T790M/C797S cell proliferation inhibition assay (CellTiter-Glo); format: cell-based
Outline: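 Proliferation IC50 derived from CellTiter-Glo luminescence in Ba/F3 cells expressing triple-mutant EGFR (L858R/T790M/C797S). Cells (700/well) incubated 72 h with graded compound doses at 0.1% DMSO final, 37 °C, 5% CO2; reagent developed 30 min at room temperature in the dark.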

[6] = Homo sapiens, A-431, cell proliferation, 72 h, CellTiter-Glo, read-out: A431 EGFR WT IC50
[7] = Mus musculus, BaF3, cell proliferation, 72 h, CellTiter-Glo, read-out: Ba/F3 (Del19/T790M/C797S) IC50
[8] = Mus musculus, BaF3, cell proliferation, 72 h, CellTiter-Glo, read-out: Ba/F3 (L858R/T790M/C797S) IC50
[9] = cell proliferation, 72 h, CellTiter-Glo, read-out: A431 EGFR WT IC50
[10] = cell proliferation, 72 h, CellTiter-Glo, read-out: Ba/F3 (Del19/T790M/C797S) IC50
[11] = cell proliferation, 72 h, CellTiter-Glo, read-out: Ba/F3 (L858R/T790M/C797S) IC50
[12] = Homo sapiens, A-431, 72 h, read-out: A431 EGFR WT IC50(nM)
[13] = Mus musculus, BaF3, 72 h, read-out: Ba/F3 (Del19/T790M/C797S) IC50(nM)
[14] = Mus musculus, BaF3, 72 h, read-out: Ba/F3 (L858R/T790M/C797S) IC50(nM)

EGFR WT (wild type EGFR), sequence (P00533 25-1210): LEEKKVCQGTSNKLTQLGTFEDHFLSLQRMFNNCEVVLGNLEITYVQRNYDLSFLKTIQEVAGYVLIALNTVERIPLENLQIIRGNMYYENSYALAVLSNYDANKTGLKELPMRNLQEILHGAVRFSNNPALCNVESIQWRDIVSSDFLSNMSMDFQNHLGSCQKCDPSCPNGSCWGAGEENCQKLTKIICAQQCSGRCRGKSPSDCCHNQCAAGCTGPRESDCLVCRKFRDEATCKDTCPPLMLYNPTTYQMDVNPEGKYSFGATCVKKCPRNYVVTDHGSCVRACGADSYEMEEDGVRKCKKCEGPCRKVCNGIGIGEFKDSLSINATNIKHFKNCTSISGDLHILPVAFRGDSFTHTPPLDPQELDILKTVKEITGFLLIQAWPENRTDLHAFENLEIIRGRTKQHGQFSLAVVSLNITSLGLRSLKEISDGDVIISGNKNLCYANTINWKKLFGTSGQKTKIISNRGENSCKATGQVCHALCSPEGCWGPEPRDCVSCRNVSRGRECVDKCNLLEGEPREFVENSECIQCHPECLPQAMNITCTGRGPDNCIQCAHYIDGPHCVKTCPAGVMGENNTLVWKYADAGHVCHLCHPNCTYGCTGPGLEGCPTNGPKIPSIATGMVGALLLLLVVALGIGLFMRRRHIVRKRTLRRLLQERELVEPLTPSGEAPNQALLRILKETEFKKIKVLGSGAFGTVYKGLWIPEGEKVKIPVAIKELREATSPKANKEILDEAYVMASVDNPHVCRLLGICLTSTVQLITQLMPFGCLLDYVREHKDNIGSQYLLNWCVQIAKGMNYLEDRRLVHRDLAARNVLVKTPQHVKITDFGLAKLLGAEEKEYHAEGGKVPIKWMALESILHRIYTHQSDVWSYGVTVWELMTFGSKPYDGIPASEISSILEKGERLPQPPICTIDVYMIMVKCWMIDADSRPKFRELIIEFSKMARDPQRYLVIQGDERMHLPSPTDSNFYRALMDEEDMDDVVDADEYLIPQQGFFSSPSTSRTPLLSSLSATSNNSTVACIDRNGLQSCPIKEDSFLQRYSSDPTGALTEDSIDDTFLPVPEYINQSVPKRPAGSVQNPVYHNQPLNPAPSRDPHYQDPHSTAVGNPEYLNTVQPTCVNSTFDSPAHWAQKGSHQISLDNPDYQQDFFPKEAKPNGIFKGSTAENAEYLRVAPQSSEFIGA

Compound	IC50 [1]	IC50 [2]	IC50 [3, 6]	IC50 [4, 7]	IC50 [5, 8]	IC50 [3, 9]	IC50 [4, 10]	IC50 [5, 11]	IC50 [3, 12]	IC50 [4, 13]	IC50 [5, 14]
COc1cc2c(cc1Nc1ncc(Br)c(Nc3ccc4nccnc4c3NS(C)(=O)=O)n1)-c1cnn(C)c1CCN2C [Compound 35]	< 1 nM	< 1 nM	100 to 1000 nM	< 10 nM	10 to 50 nM						
COc1cc2c(cc1Nc1ncc(Br)c(Nc3ccc4nccnc4c3P(C)(C)=O)n1)-c1cnn(C)c1CCN2C1CCN(C)C[C@@H]1F (stereo partly shown) [Compound 68]	< 1 nM	< 1 nM				50 to 100 nM	< 10 nM	< 10 nM			
COc1cc2c(cc1Nc1ncc(Br)c(Nc3ccccc3P(C)(C)=O)n1)-c1cnn(C)c1CCN2[C@@H]1CCN(C)C[C@H]1F (single isomer, unassigned) [Compound 66A]	1 to 10 nM	< 1 nM				100 to 1000 nM	< 10 nM	10 to 50 nM			
COc1cc2c(cc1Nc1nccc(Nc3ccccc3P(C)(C)=O)n1)-c1cnn(C)c1CCN2C [Compound 22]	10 to 50 nM	1 to 10 nM	> 1000 nM	10 to 50 nM	100 to 1000 nM						
COc1nc2c(cc1Nc1ncc(Br)c(Nc3ccc4nccnc4c3P(C)(C)=O)n1)-c1cnn(C)c1CCN2C [Compound 80]	1 to 10 nM	< 1 nM	100 to 1000 nM	< 10 nM	< 10 nM						
COc1cc2c(cc1Nc1ncc(Br)c(Nc3ccccc3P(C)(C)=O)n1)-c1cn(C3COC3)nc1CCN2C(C)C [Compound 77B]	100 to 1000 nM	1 to 10 nM				100 to 1000 nM	50 to 100 nM	50 to 100 nM			
COc1nc2c(cc1Nc1ncc(Br)c(Nc3ccc4nccnc4c3NS(C)(=O)=O)n1)-c1cnn(C)c1CCN2C [Compound 107]	< 1 nM	< 1 nM	100 to 1000 nM	< 10 nM	< 10 nM						
CCN(c1c(Nc2nc(Nc3cc4c(cc3OC)N(C(C)C)CCc3c-4cnn3C)ncc2Br)ccc2nccnc12)S(C)(=O)=O [Compound 134]	10 to 50 nM	1 to 10 nM							100 to 1000 nM	< 10 nM	10 to 50 nM
COc1cc2c(cc1Nc1nccc(Nc3ccccc3P(C)(C)=O)n1)-c1cnn(C)c1CCN2C(C)C [Compound 102]	10 to 50 nM	< 1 nM	> 1000 nM	50 to 100 nM	100 to 1000 nM						
COc1cc2c(cc1Nc1ncc(Br)c(Nc3ccccc3P(C)(C)=O)n1)-c1cnn(C)c1CCN2[C@H]1CCN(C)C[C@@H]1F (single isomer, unassigned) [Compound 66B]	1 to 10 nM	< 1 nM				100 to 1000 nM	< 10 nM	10 to 50 nM			
COc1cc2c(cc1Nc1ncc(Br)c(Nc3ccc4nccnc4c3NS(C)(=O)=O)n1)-c1cnn(C)c1CCN2C1CCC1 [Compound 135]	1 to 10 nM	1 to 10 nM							100 to 1000 nM	< 10 nM	< 10 nM
COc1cc2c(cc1Nc1ncc(C)c(Nc3ccccc3P(C)(C)=O)n1)-c1cnn(C)c1CCN2C#N [Compound 23]	10 to 50 nM	1 to 10 nM	100 to 1000 nM	10 to 50 nM	50 to 100 nM						
COc1cc2c(cc1Nc1ncc(Br)c(Nc3ccc4nccnc4c3P3(=O)CCN(C)CC3)n1)-c1cnn(C)c1CCN2C(C)C [Compound 91]	< 1 nM	< 1 nM	100 to 1000 nM	< 10 nM	10 to 50 nM						
Cc1cnc(Nc2cc3c(cc2OC(C)C)N(C)CCc2c-3cnn2C)nc1Nc1ccccc1P(C)(C)=O [Compound 18]	50 to 100 nM	1 to 10 nM	> 1000 nM	50 to 100 nM	100 to 1000 nM						
COc1cc2c(cc1Nc1ncc(Cl)c(Nc3ccccc3P(C)(C)=O)n1)-c1cnn(C)c1CCN2C(C)C [Compound 45]	1 to 10 nM	< 1 nM	100 to 1000 nM	< 10 nM	10 to 50 nM						
COc1cc2c(cc1Nc1ncc(Br)c(Nc3ccccc3N(C(C)C)S(C)(=O)=O)n1)-c1cnn(C)c1CCN2 [Compound 122]	50 to 100 nM	1 to 10 nM							100 to 1000 nM	10 to 50 nM	10 to 50 nM
COc1cc2c(cc1Nc1ncc(Br)c(Nc3ccccc3P(C)(C)=O)n1)-c1cnn(C3COC3)c1CCN2C(C)C [Compound 77A]	1 to 10 nM	< 1 nM				100 to 1000 nM	< 10 nM	10 to 50 nM			
